In US20080306076A1, “MODULATION OF CHEMOSENSORY RECEPTORS AND LIGANDS ASSOCIATED THEREWITH” (SENOMYX, INC., priority 2007, published 2008):
Substitutions are numbered along the chain they refer to.

Columns and labels:
hT1R1 S306A = target: T1, hT1R1 S306A (Homo sapiens, UniProt Q7RTX1, S306A); assay: Mutagenesis study, hT1R1 mutant S306A; format: cell-based; settings: S306 mutation
T1 construct: expressed in transfected cells; host or cells: HEK293, transient transfection
T1 sequence (Q7RTX1 21-841 S306A): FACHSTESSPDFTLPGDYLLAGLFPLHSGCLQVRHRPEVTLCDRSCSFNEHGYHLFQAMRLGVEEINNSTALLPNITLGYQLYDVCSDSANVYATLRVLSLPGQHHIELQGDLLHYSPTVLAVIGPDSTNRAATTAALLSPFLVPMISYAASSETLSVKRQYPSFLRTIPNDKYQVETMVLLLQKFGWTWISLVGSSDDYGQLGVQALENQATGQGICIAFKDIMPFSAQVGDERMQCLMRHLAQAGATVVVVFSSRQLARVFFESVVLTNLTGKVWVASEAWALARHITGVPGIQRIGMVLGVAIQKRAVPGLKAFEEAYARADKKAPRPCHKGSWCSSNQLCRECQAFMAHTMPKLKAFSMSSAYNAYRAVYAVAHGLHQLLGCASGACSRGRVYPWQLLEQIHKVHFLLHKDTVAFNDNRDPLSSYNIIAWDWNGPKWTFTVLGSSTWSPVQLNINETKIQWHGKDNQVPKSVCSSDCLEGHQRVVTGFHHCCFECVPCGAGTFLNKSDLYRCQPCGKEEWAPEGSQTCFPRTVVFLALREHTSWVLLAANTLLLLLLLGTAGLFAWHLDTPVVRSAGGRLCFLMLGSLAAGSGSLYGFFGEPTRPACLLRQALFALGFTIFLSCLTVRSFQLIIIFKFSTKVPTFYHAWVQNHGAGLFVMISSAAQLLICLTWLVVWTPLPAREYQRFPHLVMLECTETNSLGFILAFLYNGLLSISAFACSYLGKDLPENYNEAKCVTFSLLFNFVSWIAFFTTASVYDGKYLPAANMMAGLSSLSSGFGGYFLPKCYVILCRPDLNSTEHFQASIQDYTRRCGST
T1 sequence (Q923K1 21-858 partner): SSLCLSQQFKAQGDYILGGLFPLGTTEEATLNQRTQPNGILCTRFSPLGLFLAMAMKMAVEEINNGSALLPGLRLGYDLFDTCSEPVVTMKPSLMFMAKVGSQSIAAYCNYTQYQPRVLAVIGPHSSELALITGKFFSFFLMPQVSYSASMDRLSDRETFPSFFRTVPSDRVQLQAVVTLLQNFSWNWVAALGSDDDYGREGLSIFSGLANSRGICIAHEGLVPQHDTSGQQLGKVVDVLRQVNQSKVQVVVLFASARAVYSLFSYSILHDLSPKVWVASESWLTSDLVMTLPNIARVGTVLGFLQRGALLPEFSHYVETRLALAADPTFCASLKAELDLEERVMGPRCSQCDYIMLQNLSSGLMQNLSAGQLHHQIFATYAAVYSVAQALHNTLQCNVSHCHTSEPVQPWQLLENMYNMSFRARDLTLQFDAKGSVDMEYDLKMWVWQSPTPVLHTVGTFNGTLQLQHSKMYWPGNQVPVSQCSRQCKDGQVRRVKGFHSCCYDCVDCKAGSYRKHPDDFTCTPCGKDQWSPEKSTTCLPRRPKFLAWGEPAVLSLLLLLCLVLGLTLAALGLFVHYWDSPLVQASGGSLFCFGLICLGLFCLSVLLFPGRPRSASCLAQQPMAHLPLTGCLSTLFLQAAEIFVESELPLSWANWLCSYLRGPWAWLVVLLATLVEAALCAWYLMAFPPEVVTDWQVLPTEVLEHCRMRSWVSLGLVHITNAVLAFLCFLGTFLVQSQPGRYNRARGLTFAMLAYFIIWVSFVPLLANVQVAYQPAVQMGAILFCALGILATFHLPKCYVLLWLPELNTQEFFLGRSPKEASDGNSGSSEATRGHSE
Description: (§1) In order to further define the interaction sites of umami stimuli, we performed site-directed mutagenesis on human T1R1 VFT. The mutagenesis was done using the routine PCR-based method. […] were transiently transfected into HEK293 cell together with the rat T1R3 wild type cDNA, and the transfected cells were characterized using an automated FLIPR machine or a calcium imaging system as described in our previous patent applications.

hT1R1 R277A = target: T2, hT1R1 R277A (Homo sapiens, UniProt Q7RTX1, R277A); assay: Mutagenesis study, hT1R1 mutant R277A; format: cell-based; settings: R277 mutation
T2 construct: expressed in transfected cells; host or cells: HEK293, transient transfection
T2 sequence (Q7RTX1 21-841 R277A): T1 sequence (Q7RTX1 21-841 S306A) with R257A, A286S
T2 sequence (Q923K1 21-858 partner): T1 sequence (Q923K1 21-858 partner)
Description: as §1

SMILES: Nc1nc2c(ncn2[C@@H]2O[C@H](COP(=O)(O)O)[C@@H](O)[C@H]2O)c(=O)[nH]1 [GMP, guanosine-5′-monophosphate]
- enhancement activity of GMP (hT1R1 S306A): similarly affected
- enhancement activity of GMP (hT1R1 R277A): similarly affected
